Among the test systems are A498; CCRF-CEM; HT-29; Hs-578T; IGROV-1; LOX IMVI; MCF7; Malme-3M; NCI-H522; RXF 393; SF-268; SF-295; SN12C; SNB-75; T47D; TK-10; U-251; UACC-62; MDA-MB-231; NCI/ADR-RES.
Assay in all cases: inhibition of tumour cell growth, NCI panel, 48 h

Each structure is given as a SMILES string.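 Where inhibition never reached the appropriate level, the endpoint shown equals the highest concentration tested. Otherwise, values were interpolated linearly from a five-concentration, 48-hour dose response in 96-well plates. Abbreviation: GI50, concentration required for 50% inhibition of growth.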 Activity calls are given as the source filed them. Cut-off read from the data, not from the text of the source: active = GI50 up to about 1.1 µM and inactive = higher. A value given as a limit tells only on which side of the number the result lay.

For `CC(C)(C)NNc1c([N+](=O)[O-])cnn(-c2ccccc2)c1=O`, the GI50 with A498 is 29.8 µM (inactive); in the assay on CCRF-CEM, 0.944 µM (active); in the assay with HT-29 it was 2.84 µM (inactive); in the assay on Hs-578T, 7.76 µM (inactive); with IGROV-1, 20.4 µM (inactive); with LOX IMVI, 1.79 µM (inactive). Moreover, the GI50 is 2.92 µM (inactive) in the assay with MCF7; 4.05 µM (inactive) in the assay on Malme-3M; 1.77 µM (inactive) in the assay with NCI-H522; 8.32 µM (inactive) with RXF 393; 9.82 µM (inactive) in the assay with SF-268; 6.28 µM (inactive) in the assay on SF-295. Further, the GI50 was 3.14 µM (inactive) in the assay on SN12C; 9.86 µM (inactive) in the assay with SNB-75; 2.29 µM (inactive) with T47D; 22 µM (inactive) with TK-10; 3.2 µM (inactive) with U-251; 3.5 µM (inactive) in the assay on UACC-62.
For the molecule `COC(=O)Cc1cc2c(cc1C(=O)c1ccc(N)cc1)OCO2`, the GI50 with CCRF-CEM was 1.48 µM (inactive); with HT-29 it was 1.09 µM (active); in the assay on Hs-578T, 2.26 µM (inactive); with IGROV-1, 0.625 µM (active); in the assay on LOX IMVI, 5.45 µM (inactive); in the assay on MCF7, 0.902 µM (active). The GI50 in the assay with MDA-MB-231 was 3.42 µM (inactive); in the assay on Malme-3M, > 100 µM (inactive); in the assay on NCI-H522, 0.228 µM (active); with NCI/ADR-RES it was 0.667 µM (active); in the assay on RXF 393, 4.34 µM (inactive); in the assay with SF-268, 2.62 µM (inactive). The GI50 in the assay on SF-295 was 1.12 µM (active); with SN12C, 5.96 µM (inactive); in the assay on SNB-75, 1.21 µM (inactive); in the assay with TK-10, > 19.7 µM (inactive); in the assay on U-251 it was 3.05 µM (inactive); in the assay on UACC-62, 1.11 µM (active).
On to `O=C(CSCC(=O)N/N=C/c1cccc(C(F)(F)F)c1)N/N=C/c1cccc(C(F)(F)F)c1`, for which the GI50 in the assay with A498, with HT-29, with Hs-578T, in the assay with IGROV-1, in the assay with LOX IMVI and with MCF7 was > 100 µM (inactive) throughout. Further, the GI50 in the assay on Malme-3M, in the assay on NCI-H522, in the assay on NCI/ADR-RES, in the assay with RXF 393, in the assay on SF-268 and in the assay with SF-295 was > 100 µM (inactive) in each case. Further, the GI50 in the assay with SNB-75, with T47D, in the assay on TK-10 and in the assay with UACC-62 was > 100 µM (inactive) throughout.
With `CC1=C(/C=C/C(=O)O)C(C)(C)CCC1`, the GI50 with A498, in the assay with HT-29, in the assay with Hs-578T, with IGROV-1, in the assay with LOX IMVI and with MCF7 was > 100 µM (inactive) in each case. Further, the GI50 with MDA-MB-231, in the assay on Malme-3M, in the assay with NCI-H522, with NCI/ADR-RES, in the assay on RXF 393 and with SF-268 was > 100 µM (inactive) in each case. For the same molecule, the GI50 with SF-295, in the assay with SN12C, with SNB-75, in the assay with TK-10, in the assay on U-251 and in the assay with UACC-62 was > 100 µM (inactive) throughout.
As for `CC(Nc1cc(Cl)cc(Cl)c1)c1ccncc1` (configuration not stated), the GI50 was 23.3 µM (inactive) in the assay with A498; 15.3 µM (inactive) with CCRF-CEM; 27.7 µM (inactive) in the assay with HT-29; 35.2 µM (inactive) in the assay with Hs-578T; 15.4 µM (inactive) with IGROV-1; 10.9 µM (inactive) with LOX IMVI. In addition, the GI50 in the assay on MCF7 was 16.2 µM (inactive); in the assay on Malme-3M, 27.7 µM (inactive); with NCI-H522, 15.3 µM (inactive); in the assay on NCI/ADR-RES, 20.5 µM (inactive); in the assay with RXF 393 it was 20.7 µM (inactive); in the assay with SF-268 it was 17.9 µM (inactive). Besides, the GI50 in the assay on SF-295 was 18.5 µM (inactive); in the assay on SN12C, > 10 µM (inactive); in the assay on SNB-75, 23.3 µM (inactive); in the assay with T47D, 7.85 µM (inactive); in the assay with TK-10, 41.8 µM (inactive); with U-251 it was 17.9 µM (inactive).
`CCn1nc(C)c2c1C(=O)NC(C)C(=O)N2` (configuration not stated): the GI50 in the assay on A498, with HT-29, in the assay with Hs-578T, with IGROV-1, in the assay with NCI-H522 and with RXF 393 was > 100 µM (inactive) each time. The GI50 in the assay with SF-268 is > 100 µM (inactive); with SF-295, > 100 µM (inactive); in the assay with SN12C, 36.6 µM (inactive); with SNB-75, > 100 µM (inactive); in the assay on TK-10 it was > 100 µM (inactive); in the assay on U-251, > 100 µM (inactive). The GI50 in the assay on UACC-62 is > 100 µM (inactive).
For the molecule `O/N=C1\CC2(N3CCOCC3)CCC1(Cc1ccccc1)CC2`, the GI50 in the assay with A498 was 32 µM (inactive); in the assay on CCRF-CEM, > 100 µM (inactive); in the assay on HT-29, > 100 µM (inactive); in the assay with IGROV-1, 43.6 µM (inactive); with LOX IMVI it was 2.55 µM (inactive); in the assay with MCF7, > 100 µM (inactive). In addition, the GI50 with MDA-MB-231 is 26.2 µM (inactive); with Malme-3M, 66.4 µM (inactive); with NCI-H522, 43.4 µM (inactive); with NCI/ADR-RES, 61.1 µM (inactive); in the assay on RXF 393 it was 21.1 µM (inactive); in the assay on SF-268, 30.9 µM (inactive). Besides, the GI50 in the assay on SF-295 was 22.9 µM (inactive); in the assay on SN12C, > 100 µM (inactive); in the assay with SNB-75, 13.5 µM (inactive); in the assay with T47D, 32 µM (inactive); with U-251 it was 19.4 µM (inactive); in the assay with UACC-62 it was > 10 µM (inactive).
Consider `Cc1ccc(C2CC(=O)CC(c3ccc(C)cc3)C23C(=O)NC(=O)NC3=O)cc1` (configuration not stated), for which the GI50 in the assay with CCRF-CEM, in the assay on HT-29, with IGROV-1, with LOX IMVI, in the assay on MCF7 and in the assay on MDA-MB-231 was > 100 µM (inactive) in each case. The GI50 in the assay on Malme-3M, in the assay with NCI-H522, with NCI/ADR-RES, with RXF 393, in the assay on SF-268 and with SF-295 was > 100 µM (inactive) each time. Besides, the GI50 in the assay on SN12C, with SNB-75, with T47D, in the assay with TK-10, in the assay on U-251 and with UACC-62 was > 100 µM (inactive) throughout.
Regarding `Cc1[nH]c(=O)nc(S)c1C(=O)Nc1cccc2cc3ccccc3cc12`, the GI50 with A498, with CCRF-CEM, in the assay with HT-29, with Hs-578T, with IGROV-1 and with LOX IMVI was > 100 µM (inactive) each time. For the same molecule, the GI50 in the assay on MCF7, in the assay on Malme-3M, in the assay on NCI/ADR-RES, with RXF 393, with SF-268 and in the assay with SF-295 was > 100 µM (inactive) throughout. Also, the GI50 in the assay with SN12C, with SNB-75, in the assay with T47D, with TK-10, with U-251 and in the assay on UACC-62 was > 100 µM (inactive) throughout.
Turning to `CCOC(=O)/C(=C\NC(C)(C)CO)c1nc2ccccc2[nH]1`, the GI50 in the assay on A498 was 54.6 µM (inactive); in the assay with CCRF-CEM, 35.6 µM (inactive); in the assay with HT-29, 88.7 µM (inactive); in the assay on Hs-578T, 34.4 µM (inactive); in the assay with IGROV-1, 41.5 µM (inactive); in the assay with LOX IMVI it was > 100 µM (inactive). The GI50 in the assay on MCF7 is 86.3 µM (inactive); in the assay with Malme-3M it was > 100 µM (inactive); with NCI-H522 it was 61.7 µM (inactive); with NCI/ADR-RES it was 79.6 µM (inactive); in the assay with RXF 393, > 100 µM (inactive); in the assay on SF-268 it was 81.5 µM (inactive). For the same molecule, the GI50 in the assay with SF-295 was 64.6 µM (inactive); in the assay with SN12C it was > 100 µM (inactive); with SNB-75, > 100 µM (inactive); in the assay on TK-10 it was 63.8 µM (inactive); in the assay with UACC-62, 43.5 µM (inactive).
Consider `CC(=O)N1C(C(=O)NC2CCCCC2)CSC1c1ccccc1` (configuration not stated), for which the GI50 with A498, with CCRF-CEM, with HT-29, in the assay on Hs-578T, in the assay on IGROV-1 and with LOX IMVI was > 100 µM (inactive) throughout. The GI50 in the assay on MCF7, in the assay with Malme-3M, with NCI-H522, in the assay with NCI/ADR-RES, with SF-268 and in the assay with SF-295 was > 100 µM (inactive) each time. Further, the GI50 in the assay on SN12C, in the assay on SNB-75, with TK-10, in the assay on U-251 and in the assay with UACC-62 was > 100 µM (inactive) throughout.
For `COc1cc(OC)cc(-n2c(N)c(C#N)c3ccc([N+](=O)[O-])cc3c2=O)c1`, the GI50 is 20 µM (inactive) in the assay on A498; > 100 µM (inactive) in the assay on HT-29; 24.2 µM (inactive) with Hs-578T; > 100 µM (inactive) in the assay with LOX IMVI; 37.5 µM (inactive) with MDA-MB-231; 41.8 µM (inactive) with NCI/ADR-RES. The GI50 is 32.4 µM (inactive) in the assay on SF-268; 20.4 µM (inactive) with SN12C; 19.7 µM (inactive) in the assay on SNB-75; 33.7 µM (inactive) in the assay with T47D; 34.2 µM (inactive) in the assay on TK-10; 22.9 µM (inactive) in the assay on U-251. In addition, the GI50 in the assay on UACC-62 is 27.3 µM (inactive).
